Results taken from paper PMC12591170, “Glabridin‐Gold(I) Complex as a Novel Immunomodulatory Agent Targeting TrxR and MAPK Pathways for Synergistic Enhancement of Antitumor Immunity” (Advanced Science, 2025).
“Also recorded” adds a separate entry of the source.

Assays:
[1] = system: MEK1/2; assay: CETSA and ITDR assay, MEK1/2; type: binding, human; details: HepG2 proteins, 8 µM, ITDR at 78 °C
Protocol: The treated HepG2 cells in 10 cm culture dishes were collected and washed with PBS. The collected cells were repeatedly frozen and thawed for 3 times by liquid nitrogen and 37 °C water bath. Then, proteins were isolated by centrifugation. The isolated proteins were divided into different tubes and incubated with same concentration of 6d at different temperature. Western blot was applied for CETSA by analyzing the band intensity of different temperature groups.
The temperature, which results in significant band differences between 6d and control group, was selected for ITDR assay. The isolated proteins were divided into different tubes and incubated with different concentration of 6d at same temperature. The binding between 6d and target protein was assessed by analyzing the band intensity of different concentration groups.

[2] = mouse
[3] = system: phosphorylated Akt; assay: Western blot of phosphorylated Akt in HepG2; type: cell-based, human; details: HepG2, 24 h; GLA at 8 µM
Protocol: (§1) HepG2 cells were incubated in 6 cm culture dishes and treated with different complexes. The treated cells were lysed with lysis buffer (RIPA:PMSF:phosphatase inhibitor:protease inhibitor = 100:1:1:1). The lysed cells were further broken by sonication, and proteins were isolated by centrifugation. The protein concentrations were detected by BCA assay. 10% SDS PAGE gel was usually applied to separate the different kDa of proteins, and more than 200 kDa of proteins were separated using 8% SDS PAGE gel. After seperation, proteins were transferred onto polyvinylidene difluoride (PVDF) membranes. The target proteins were labeled by various specific primary antibodies at 4 °C overnight. Then, the membranes were treated with anti‐rabbit or anti‐mouse secondary antibody for 2 h. Tris buffered saline with tween 20 (TBST) was applied to wash the membranes after each operation above. The target proteins’ bands were detected by the enhanced chemiluminescence (ECL) procedure.

[4] = system: HepG2 cells; assay: MMP measurement (JC-1); type: cell-based, human; details: HepG2, 24 h
Protocol: 12‐well plate was applied to incubate HepG2 cells (5 × 10^4 cells per wells). After overnight, cells were treated with DMF (0.1%), AF (4 µM) or different concentrations of 6d (2, 4, 8 µM) for 24 h. 2.5 µg mL^−1 JC‐1 probe was added in the wells after removing original liquid. 15 min later, PBS was applied to wash cells for two times. Then, the fluorescence images were captured by the fluorescence microscopy.

[5] = system: HepG2 cells; assay: ROS levels assay (DHE, DCFH-DA); type: cell-based, human; details: HepG2, 6 h, DHE and DCFH-DA probes
Protocol: HepG2 cells were seeded in 12‐well plate (5 × 10^4 cells per well). 4 mM N‐acetylcysteine (NAC) was applied for 1 h pretreatment. DMF (0.1%), AF (4 µM) or different concentrations of 6d (2, 4, 8 µM) were added in the wells for 6 h incubation. 10 µM DHE or DCFH‐DA (dissolved in DMEM) probes were applied for 30 min staining. The cells were photographed by the fluorescence microscopy after washing twice.

[6] = system: MAPK pathway (phosphorylated MEK1/2 and ERK1/2); assay: Western blot of MAPK pathway in HepG2; type: cell-based, human; details: HepG2, 24 h
Protocol: as §1

[7] = system: PD-L1; assay: PD-L1 expression in HepG2 (western blot, immunofluorescence, flow cytometry); type: cell-based, human; details: HepG2, 24 h
Protocol: as §1
5 × 10^4 HepG2 cells were treated with complexes in 24‐well plates for 24 h. Subsequently, cells were fixed with 4% paraformaldehyde. Various specific antibodies were added for incubation at 4 °C overnight after cells were permeabilized with Triton X‐100 (except for membrane proteins) and blocked with BSA. Then, the cells were incubated with fluorescently‐labeled secondary antibodies in darkness for 2 h. After that, DAPI was added to stain nuclear in darkness. PBS was applied for washing after each operation above (Tris buffered saline (TBS) was applied for washing if phosphorylated protein was analyzed). The cell images were captured by the fluorescence microscopy.
4 × 10^5 HepG2 cells were incubated in 6‐well plates, and complexes were added in the wells. The cells were collected after incubation, and the treated cells were labeled with probes or fluorescently‐labeled antibodies. A flow cytometer was applied to analyze the labeled cells.

[8] = Solubility by UV absorbance; type: physicochemical; details: PBS: DMF = 200:1, 298K
Protocol: Weigh a certain amount of 6d, dissolve it in a PBS: DMF = 200:1 solution, and mix to obtain the high‐concentration solution. Then dilute the original solution to prepare solutions of different concentrations. The ultraviolet absorbance values at the maximum absorption wavelength (237 nm) were measured in sequence, and the standard curve was plotted (Figure S40, Supporting Information). Prepare the saturated 6d solution by the same method. After centrifugation, take the supernatant and dilute it 7 times.

[9] = system: 293T cells; assay: MTT assay, normal kidney cell line 293T; type: cell-based; details: 72 h MTT assay, Mean ± SD
Protocol: All cells were incubated at 37 °C by DMEM complete medium (containing 1% penicillin−streptomycin and 12% FBS) in 5% CO2 incubator. 2–5 × 10^3 cells were cultured in 96‐well plates and each well contained 100 µL complete medium. OXA was dissolved in water, and all other complexes were dissolved in DMF. After cells adhered in the wells, different concentrations of complexes were diluted in 100 µL complete medium and added in the wells. The final volume in the each well was 200 µL and the content of DMF was maximum 0.5%. After 72 h incubation, the antiproliferative activity was tested by MTT assay.

[10] = system: HepG2 cells; assay: Apoptosis assay (annexin V-EGFP/PI); type: cell-based, human; details: HepG2, 24 h
Protocol: 4 × 10^5 HepG2 cells was seeded in 6‐well plates for overnight incubation. DMF (0.1%), AF (4 µM) or different concentrations of 6d (2, 4, 8 µM) were added in the wells for 24 h. PBS was applied to wash cells for two times, and cells were collected subsequently. After washing twice by PBS, Annexin V‐EGFP/PI Apoptosis Detection kit was used to dye the cells. Then, the apoptosis ratio was analyzed by flow cytometer.

[11] = Stability analysis by 1H NMR; type: physicochemical
Protocol: 5 mM of complex 6d was incubated with DMSO‐d6 or the mixed solution (DMSO‐d6 /D2O = 9:1) or the same mixed solution with 5 mM of GSH for different times (0 – 72 h), and the ^1H NMR spectra were acquired. The stability of AF was determined by the same method.

SMILES: CCn1ccn(CCCCCOc2ccc([C@@H]3COc4c(ccc5c4C=CC(C)(C)O5)C3)c(OCCCCCn3ccn(CC)[c]3=[Au][Br])c2)[c]1=[Au][Br] [6d]
- binding to MEK1/2 (CETSA, ITDR) [1]: significant binding
- metabolic stability in whole blood ([2]; 2 h): high metabolic stability
- T1/2 ([2]; blood): ∞
- Percent Remaining (%) (Mean, n=2) 0 min ([2]; blood, 0 h): 100%
- Percent Remaining (%) (Mean, n=2) 5 min ([2]; blood, 5 min): 98.8%
- Percent Remaining (%) (Mean, n=2) 15 min ([2]; blood, 0.25 h): 107%
- Percent Remaining (%) (Mean, n=2) 30 min ([2]; blood, 0.5 h): 103%
- Percent Remaining (%) (Mean, n=2) 60 min ([2]; blood, 1 h): 103%
- Percent Remaining (%) (Mean, n=2) 120 min ([2]; blood, 2 h): 108%
- Akt phosphorylation (western blot) [3]: inhibited Akt phosphorylation
- mitochondrial membrane potential (MMP) [4]: decreased MMP
- ROS level [5]: elevated ROS level
- ERK1/2 phosphorylation (western blot, Figure S49) [6]: downregulated ERK1/2 phosphorylation
- phosphorylation of MEK1/2 and ERK1/2 (western blot) [6]: significantly inhibited
- PD-L1 expression (western blot) [7]: downregulated; also recorded: significantly inhibited
- PD-L1 expression on the membrane surface ([7]; immunofluorescence and flow cytometry): reduced
- solubility [8]: 108 µg/mL
- IC50 [9]: 5.14 ± 0.3 µM
- apoptosis [10]: apoptosis was observed
- time after which 1H NMR spectra began to change / showed new peaks ([11]; 5 mM complex, DMSO-d6/D2O 9:1 containing GSH (5 mM)): 12 h
- stability by 1H NMR ([11]; DMSO-d6, over 72 h): remained stable
- stability by 1H NMR ([11]; DMSO-d6/D2O (v1/v2 = 9:1), over 72 h): remained stable
